# How the values were obtained:
# AML cell lines [1] = assay: Seahorse analysis: complex I dependency of respiration after rotenone, cell lines
# primary patient samples = assay: Seahorse analysis: complex I dependency of respiration after rotenone, primary patient samples
# AML cell lines [2] = assay: Cell viability assay (MTT dye reduction), Mito-high versus Mito-low AML cell lines; type: cell-based, Human; conditions: 96 h incubation, Mito AML cell lines (n=9) vs non-Mito AML cell lines (n=10), Wilcoxon rank sum test, Figure 6D
# Text: Human AML cell lines including THP-1 (DSMZ no. ACC16; […]), OCI-AML2 (DSMZ No. ACC 99; FAB M4), OCI-AML3 (DSMZ No. ACC 582; FAB M4), Molm13 (DSMZ No. ACC 554; FAB […]), PL-21 (DSMZ No. ACC 536; FAB M3), HL-60 (DSMZ No. ACC 3; FAB M2), MV4-11 (DSMZ No. ACC 102; FAB M5), SIG-M5 (DSMZ No. ACC 468; FAB […]), ML2 (DSMZ No. ACC 15; FAB M4), NB4 (DSMZ No. ACC 207; FAB M3), KG1 (DSMZ No. ACC 14; FAB not indicated), KG-1a (DSMZ No. ACC 421; FAB not indicated), U-937 (DSMZ No. ACC 5, FAB not indicated), Kasumi-1 (DSMZ No. ACC 220, FAB M2), EOL-1 (DSMZ No. ACC 386, FAB not indicated), OCI-AML5 (DSMZ No. ACC 247, FAB M4), UT-7 (DSMZ No. ACC 137, FAB M7), SET-2 (DSMZ No. ACC 608, FAB no indicated), MonoMac6 (DSMZ No. ACC 124; FAB M5) and HEL (DSMZ No. ACC 11; FAB M6) were obtained from DSMZ (Deutsche Sammlung von Mikroorganismen und Zellkulturen GmbH). THP-1, OCI-AML2, OCI-AML3, Molm13, PL-21, HL-60, MV4-11, SIG-M5, ML2, NB4, KG1, KG-1a, U-937, EOL-1, SET-2, MonoMac6 and HEL were cultured in RPMI 1640 (ThermoFisher, Cat. No. 11875093), supplemented with 20% FBS, 4 mM L-glutamine, 100 IU/ml penicillin and […] streptomycin. Kasumi-1 and OCI-AML5 were cultured in Advanced RPMI (ThermoFisher, Cat. No. 12633012) supplemented with 5% FBS, 4 mM L-glutamine, 100 IU/ml penicillin and […] streptomycin. […] IC50 values were determined using the R package "drc" v3.0-1 (Ritz et al., 2015). […]
SMILES,Complex I dependency (percentage of basal oxygen consumption rate after inhibition with rotenone) (AML cell lines [1]),Complex I dependency (percentage of basal oxygen consumption rate after inhibition with rotenone) (primary patient samples),half-maximum inhibitory concentration (IC50): in vitro sensitivity of Mito-high and -low cell lines (AML cell lines [2])
"C=C(C)[C@H]1Cc2c(ccc3c2O[C@@H]2COc4cc(OC)c(OC)cc4[C@@H]2C3=O)O1 [rotenone, Rotenone]",significantly stronger Complex I dependency,significantly stronger Complex I dependency,
"FC(F)(F)c1ccc(/C=C/c2nc(COc3ccc(CCCCn4ccnn4)cc3)co2)cc1 [mubritinib, Mubritinib]",,,significant hypersensitivity
